Assay results: patent US8822414B2, “Heterocyclic compounds suitable for the treatment of dyslipidemia” (Cadila Healthcare Limited, priority 2010, dated 2014)

Target: pro-protein convertase of the subtype nine binding to recombinant LDLR-AB domain (Homo sapiens, UniProt Q8NBP7)
Test: in vitro quantitative solid phase binding assay (ELISA) of the subtype nine pro-protein convertase to immobilized LDLR
Settings: for inhibition at 5 µM: Concentration 5 μM
Description: The in vitro binding assay described hereinafter is a quantitative solid phase binding assay for determining the efficacy of the compounds. Plates were pre-coated with a recombinant LDLR-AB domain, which binds to the gene pro-protein convertase of the subtype nine. Test compound at different concentrations was added to the subtype gene and added to LDLR immobilized on the wells. The amount of bound gene is measured by binding it with biotinylated anti-His-tag monoclonal antibody, followed by binding with horseradish peroxidase conjugated streptavidin substrate. The color was quantified by ELISA reader at […] which reflects the relative amount of “the gene” that binds to LDLR in presence and absence of the inhibitor. EC50 values were calculated by nonlinear regression analysis using graph pad prism software. Each concentration point represents values in duplicates.

pro-protein convertase of the subtype nine binding to recombinant LDLR-AB domain, sequence (Q8NBP7 153-692): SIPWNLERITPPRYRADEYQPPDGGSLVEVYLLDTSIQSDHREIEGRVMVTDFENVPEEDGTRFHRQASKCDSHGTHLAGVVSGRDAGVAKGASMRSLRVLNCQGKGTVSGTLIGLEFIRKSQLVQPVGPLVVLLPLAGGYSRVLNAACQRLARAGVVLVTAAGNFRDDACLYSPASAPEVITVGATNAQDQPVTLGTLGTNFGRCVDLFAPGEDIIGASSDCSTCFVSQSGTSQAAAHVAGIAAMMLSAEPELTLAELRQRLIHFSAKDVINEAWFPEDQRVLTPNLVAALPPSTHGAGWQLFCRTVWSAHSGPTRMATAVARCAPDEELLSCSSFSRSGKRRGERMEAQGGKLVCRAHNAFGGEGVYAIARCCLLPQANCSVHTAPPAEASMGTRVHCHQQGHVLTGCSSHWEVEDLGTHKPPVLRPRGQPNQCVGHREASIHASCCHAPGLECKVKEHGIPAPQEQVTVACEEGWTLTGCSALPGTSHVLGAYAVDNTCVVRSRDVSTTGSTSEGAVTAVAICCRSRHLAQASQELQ
pro-protein convertase of the subtype nine binding to recombinant LDLR-AB domain, sequence (Q8NBP7 31-152 partner limits assumed): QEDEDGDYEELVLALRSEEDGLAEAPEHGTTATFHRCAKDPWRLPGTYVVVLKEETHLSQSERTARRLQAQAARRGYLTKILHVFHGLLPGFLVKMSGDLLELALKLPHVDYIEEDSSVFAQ

With `CC(=NOCc1ccc(C(F)(F)F)cc1)c1ccc(NCC(=O)NCC2CCOCC2)nc1` [Example 4, N-((tetrahydro-2H-pyran-4-yl)methyl)-2-((5-(1-(((4-(trifluoromethyl)benzyl)oxy)imino)ethyl)pyridin-2-yl)amino)acetamide] the inhibition at 1 µM (Concentration 1 μM) was 34%, the inhibition at 10 µM (Concentration 10 μM) was 39% and the inhibition at 100 µM (Concentration 100 μM) was 51%.
`CCC(=NOCc1ccc(C(F)(F)F)cc1)c1ccc(NCC(=O)NCC2CCOCC2)cc1` [Example 5, N-((tetrahydro-2H-pyran-4-yl)methyl)-2-((4-(1-(((4-(trifluoromethyl)benzyl)oxy)imino)propyl)phenyl)amino)acetamide] gave an inhibition at 1 µM (Concentration 1 μM) of 34%, an inhibition at 10 µM (Concentration 10 μM) of 40% and an inhibition at 100 µM (Concentration 100 μM) of 50%.
In the case of `Cc1cc(C(Cc2ccccc2)=NOCc2ccc(C(F)(F)F)cc2)ccc1OCC(=O)NCC1CCOCC1` [Example 10, 2-(2-methyl-4-(2-phenyl-1-(((4-(trifluoromethyl)benzyl)oxy)imino)ethyl)phenoxy)-N-((tetrahydro-2H-pyran-4-yl)methyl)acetamide], the inhibition at 1 µM (Concentration 1 μM) is reported as 3%, the inhibition at 5 µM is reported as 18% and the inhibition at 10 µM (Concentration 10 μM) is reported as 35%. For the same compound, the inhibition at 100 µM (Concentration 100 μM) was 51%.
Compound `O=C(COc1ccc(C(Cc2ccccc2)=NOCc2ccc(C(F)(F)F)cc2)cc1)NCC1CCOCC1` [Example 11, 2-(4-(2-phenyl-1-(((4-(trifluoromethyl)benzyl)oxy)imino)ethyl)phenoxy)-N-((tetrahydro-2H-pyran-4-yl)methyl)acetamide] has an inhibition at 1 µM (Concentration 1 μM) of 20%, an inhibition at 5 µM of 23% and an inhibition at 10 µM (Concentration 10 μM) of 49%. For the same compound, the inhibition at 100 µM (Concentration 100 μM) was 61%.
Compound `O=C(COc1ccc(C(Cc2ccccc2)=NOCc2cccc(C(F)(F)F)c2)cc1)NCC1CCOCC1` [Example 12, 2-(4-(2-phenyl-1-(((3-(trifluoromethyl)benzyl)oxy)imino)ethyl)phenoxy)-N-((tetrahydro-2H-pyran-4-yl)methyl)acetamide] has an inhibition at 1 µM (Concentration 1 μM) of 19%, an inhibition at 10 µM (Concentration 10 μM) of 55% and an inhibition at 100 µM (Concentration 100 μM) of 79%.
Compound `O=C(COc1ccc(C(Cc2ccncc2)=NOCc2ccc(C(F)(F)F)cc2)cc1)NCC1CCOCC1` [Example 13, 2-(4-(2-(pyridin-4-yl)-1-(((4-(trifluoromethyl)benzyl)oxy)imino)ethyl)phenoxy)-N-((tetrahydro-2H-pyran-4-yl)methyl)acetamide] has an inhibition at 1 µM (Concentration 1 μM) of 22%, an inhibition at 10 µM (Concentration 10 μM) of 32% and an inhibition at 100 µM (Concentration 100 μM) of 48%.
Work on `O=C(COc1ccc(C(CN2CCOCC2)=NOCc2ccc(C(F)(F)F)cc2)cc1)NCC1CCOCC1` [Example 14, 2-(4-(2-morpholino-1-(((4-(trifluoromethyl)benzyl)oxy)imino)ethyl)phenoxy)-N-((tetrahydro-2H-pyran-4-yl)methyl)acetamide] yielded an inhibition at 1 µM (Concentration 1 μM) of 15%, an inhibition at 10 µM (Concentration 10 μM) of 31% and an inhibition at 100 µM (Concentration 100 μM) of 41%.
For `O=C(COc1ccc(C(CN2CCSCC2)=NOCc2ccc(C(F)(F)F)cc2)cc1)NCC1CCOCC1` [Example 15, N-((tetrahydro-2H-pyran-4-yl)methyl)-2-(4-(2-thiomorpholino-1-(((4-(trifluoromethyl)benzyl)oxy)imino)ethyl)phenoxy)acetamide], the inhibition at 1 µM (Concentration 1 μM) was 25%, the inhibition at 10 µM (Concentration 10 μM) was 37% and the inhibition at 100 µM (Concentration 100 μM) was 39%.
For `Cc1cc(C(Cc2ccsc2)=NOCc2ccc(C(F)(F)F)cc2)ccc1OCC(=O)NCC1CCOCC1` [Example 16, 2-(2-methyl-4-(2-(thiophen-3-yl)-1-(((4-(trifluoromethyl)benzyl)oxy)imino)ethyl)phenoxy)-N-((tetrahydro-2H-pyran-4-yl)methyl)acetamide], the inhibition at 1 µM (Concentration 1 μM) was 10%, the inhibition at 5 µM was 21% and the inhibition at 10 µM (Concentration 10 μM) was 35%. For the same compound, the inhibition at 100 µM (Concentration 100 μM) was 61%.
`O=C(COc1ccc(C=NOCc2ccc(C(F)(F)F)cc2)cc1)NCC1CCOCC1` [Example 17, N-((tetrahydro-2H-pyran-4-yl)methyl)-2-(4-((((4-(trifluoromethyl)benzyl)oxy)imino)methyl)phenoxy)acetamide] gave an inhibition at 1 µM (Concentration 1 μM) of 13%, an inhibition at 10 µM (Concentration 10 μM) of 19% and an inhibition at 100 µM (Concentration 100 μM) of 44%.
Work on `O=C(COc1ccc(C=NOCc2ccc(C(F)(F)F)cc2)cn1)NCC1CCOCC1` [Example 19, N-((tetrahydro-2H-pyran-4-yl)methyl)-2-((5-((((4-(trifluoromethyl)benzyl)oxy)imino)methyl)pyridin-2-yl)oxy)acetamide] yielded an inhibition at 10 µM (Concentration 10 μM) of 40% and an inhibition at 100 µM (Concentration 100 μM) of 46%.
`CC(=NOCc1ccc(C(F)(F)F)cc1)c1ccc(NCC(=O)NCC2CCOCC2)cc1` [Example 20, N-((tetrahydro-2H-pyran-4-yl)methyl)-2-((4-(1-(((4-(trifluoromethyl)benzyl)oxy)imino)ethyl)phenyl)amino)acetamide] was tested, and the inhibition at 1 µM (Concentration 1 μM) was 20%, the inhibition at 10 µM (Concentration 10 μM) was 34% and the inhibition at 100 µM (Concentration 100 μM) was 57%.
For `CC(=NOCc1ccc(C#N)cc1)c1ccc(OCC(=O)NCC2CCOCC2)nc1` [Example 21, 2-((5-(1-(((4-cyanobenzyl)oxy)imino)ethyl)pyridin-2-yl)oxy)-N-((tetrahydro-2H-pyran-4-yl)methyl)acetamide], the inhibition at 100 µM (Concentration 100 μM) was 15%.
`CCC(=NOCc1ccc(C(F)(F)F)cc1)c1ccc(NCC(=O)NCC2CCOCC2)nc1` [Example 23, N-((tetrahydro-2H-pyran-4-yl)methyl)-2-((5-(1-(((4-(trifluoromethyl)benzyl)oxy)imino)propyl)pyridin-2-yl)amino)acetamide] was tested, and the inhibition at 1 µM (Concentration 1 μM) was 30%, the inhibition at 10 µM (Concentration 10 μM) was 42% and the inhibition at 100 µM (Concentration 100 μM) was 47%.
In the case of `CCC(=NOCc1ccccc1)c1ccc(OCC(=O)NCC2CCOCC2)nc1` [Example 24, 2-((5-(1-((benzyloxy)imino)propyl)pyridin-2-yl)oxy)-N-((tetrahydro-2H-pyran-4-yl)methyl)acetamide], the inhibition at 1 µM (Concentration 1 μM) is reported as 24%, the inhibition at 10 µM (Concentration 10 μM) is reported as 28% and the inhibition at 100 µM (Concentration 100 μM) is reported as 52%.
Work on `CCC(=NOCc1ccc(C)cc1)c1ccc(OCC(=O)NCC2CCOCC2)nc1` [Example 25, 2-((5-(1-(((4-methylbenzyl)oxy)imino)propyl)pyridin-2-yl)oxy)-N-((tetrahydro-2H-pyran-4-yl)methyl)acetamide] yielded an inhibition at 1 µM (Concentration 1 μM) of 28%, an inhibition at 10 µM (Concentration 10 μM) of 34% and an inhibition at 100 µM (Concentration 100 μM) of 50%.
With `CCC(=NOCc1ccc(OC)cc1)c1ccc(OCC(=O)NCC2CCOCC2)nc1` [Example 26, 2-((5-(1-(((4-methoxybenzyl)oxy)imino)propyl)pyridin-2-yl)oxy)-N-((tetrahydro-2H-pyran-4-yl)methyl)acetamide] the inhibition at 1 µM (Concentration 1 μM) was 45%, the inhibition at 10 µM (Concentration 10 μM) was 45% and the inhibition at 100 µM (Concentration 100 μM) was 52%.
Compound `CCC(=NOCc1ccc(F)cc1)c1ccc(OCC(=O)NCC2CCOCC2)nc1` [Example 27, 2-((5-(1-(((4-fluorobenzyl)oxy)imino)propyl)pyridin-2-yl)oxy)-N-((tetrahydro-2H-pyran-4-yl)methyl)acetamide] has an inhibition at 1 µM (Concentration 1 μM) of 10%, an inhibition at 10 µM (Concentration 10 μM) of 15% and an inhibition at 100 µM (Concentration 100 μM) of 29%.
`CCC(=NOCc1ccc(C#N)cc1)c1ccc(OCC(=O)NCC2CCOCC2)nc1` [Example 28, 2-((5-(1-(((4-cyanobenzyl)oxy)imino)propyl)pyridin-2-yl)oxy)-N-((tetrahydro-2H-pyran-4-yl)methyl)acetamide] was tested, and the inhibition at 100 µM (Concentration 100 μM) was 23%.
With `COCC(=NOCc1ccc(C(F)(F)F)cc1)c1ccc(OCC(=O)NCC2CCOCC2)cc1` [Example 30, 2-(4-(2-methoxy-1-(((4-(trifluoromethyl)benzyl)oxy)imino)ethyl)phenoxy)-N-((tetrahydro-2H-pyran-4-yl)methyl)acetamide] the inhibition at 100 µM (Concentration 100 μM) was 36%.
Work on `Cc1ccc(CON=C(Cc2ccccc2)c2ccc(OCC(=O)NCC3CCOCC3)c(C)c2)cc1` [Example 32, 2-(2-methyl-4-(1-(((4-methylbenzyl)oxy)imino)-2-phenylethyl)phenoxy)-N-((tetrahydro-2H-pyran-4-yl)methyl)acetamide] yielded an inhibition at 1 µM (Concentration 1 μM) of 14%, an inhibition at 10 µM (Concentration 10 μM) of 35% and an inhibition at 100 µM (Concentration 100 μM) of 48%.
Work on `Cc1ccc(CON=C(Cc2ccccc2)c2ccc(OCC(=O)NCC3CCOCC3)cc2)cc1` [Example 33, 2-(4-(1-(((4-methylbenzyl)oxy)imino)-2-phenylethyl)phenoxy)-N-((tetrahydro-2H-pyran-4-yl)methyl)acetamide] yielded an inhibition at 1 µM (Concentration 1 μM) of 10%, an inhibition at 10 µM (Concentration 10 μM) of 10% and an inhibition at 100 µM (Concentration 100 μM) of 28%.
Work on `Cc1cc(C(Cc2ccccc2)=NOCc2ccc(F)cc2)ccc1OCC(=O)NCC1CCOCC1` [Example 34, 2-(4-(1-(((4-fluorobenzyl)oxy)imino)-2-phenylethyl)-2-methylphenoxy)-N-((tetrahydro-2H-pyran-4-yl)methyl)acetamide] yielded an inhibition at 1 µM (Concentration 1 μM) of 7%, an inhibition at 10 µM (Concentration 10 μM) of 13% and an inhibition at 100 µM (Concentration 100 μM) of 32%.
Compound `O=C(COc1ccc(C(Cc2ccccc2)=NOCc2ccc(F)cc2)cc1)NCC1CCOCC1` [Example 35, 2-(4-(1-(((4-fluorobenzyl)oxy)imino)-2-phenylethyl)phenoxy)-N-((tetrahydro-2H-pyran-4-yl)methyl)acetamide] has an inhibition at 1 µM (Concentration 1 μM) of 22%, an inhibition at 10 µM (Concentration 10 μM) of 13% and an inhibition at 100 µM (Concentration 100 μM) of 25%.
For `Cc1cc(C(Cc2ccccc2)=NOCc2ccc(Cl)cc2)ccc1OCC(=O)NCC1CCOCC1` [Example 36], the “% Inhibition” value (Concentration 1 μM) was 6%, the “% Inhibition” value (Concentration 10 μM) was 9% and the “% Inhibition” value (Concentration 100 μM) was 36%.
Compound `O=C(COc1ccc(C(Cc2ccccc2)=NOCc2ccc(Cl)cc2)cc1)NCC1CCOCC1` [Example 37, 2-(4-(1-(((4-chlorobenzyl)oxy)imino)-2-phenylethyl)phenoxy)-N-((tetrahydro-2H-pyran-4-yl)methyl)acetamide] has an inhibition at 1 µM (Concentration 1 μM) of 20%, an inhibition at 10 µM (Concentration 10 μM) of 26% and an inhibition at 100 µM (Concentration 100 μM) of 28%.
For `Cc1cc(C(Cc2ccccc2)=NOCc2ccc(OC(F)(F)F)cc2)ccc1OCC(=O)NCC1CCOCC1` [Example 38, 2-(2-methyl-4-(2-phenyl-1-(((4-(trifluoromethoxy)benzyl)oxy)imino)ethyl)phenoxy)-N-((tetrahydro-2H-pyran-4-yl)methyl)acetamide], the inhibition at 10 µM (Concentration 10 μM) was 19% and the inhibition at 100 µM (Concentration 100 μM) was 38%.
